Laboratory results: PubChem BioAssay (NCI)
Where “and” joins values, the source holds several entries; their conditions need not be identical. Identical values can stand only once.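 Compound exposure: 48 hours, 5 concentrations, 96-well plates. GI50: concentration for 50% inhibition of growth. TGI denotes the concentration required for complete inhibition of growth.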

Assays:
Assay in all cases: DTP human tumour cell line panel, 48 h
[1] = system: OVCAR-5 ovarian
[2] = system: SR leukemia
[3] = system: SK-MEL-2 melanoma
[4] = system: ACHN renal
[5] = system: SF-295 CNS
[6] = system: NCI-H522 lung
[7] = system: MOLT-4 leukemia
[8] = system: SK-MEL-28 melanoma
[9] = system: SN12C renal
[10] = system: HL-60(TB) leukemia

SMILES	TGI [1]	TGI [2] [µM]	TGI [3]	TGI [4] [µM]	TGI [5]	TGI [6]	TGI [7]	TGI [8]	TGI [9]	TGI [10]	GI50 [1] [µM]	GI50 [3] [µM]	GI50 [4] [µM]	GI50 [5] [µM]	GI50 [8] [µM]	GI50 [9] [µM]	GI50 [6] [µM]	GI50 [10]	GI50 [2] [µM]	GI50 [7] [µM]
c1ccc(CSC(SCc2ccccc2)c2cccc3ccccc23)cc1	> 10 µM	> 10	> 10 µM	> 10	> 10 µM	> 10 µM	> 10 µM	> 10 µM	> 10 µM	> 10 µM	–	–	–	–	–	–	–	–	–	–
c1ccc(/C(=N\Nc2nc3ccccc3[nH]2)c2ccccn2)cc1	4.47 µM	> 31.8	21.4 µM	2	9.26 µM	0.69 µM	51.9 µM	12.8 µM	> 21.1 µM	–	–	–	–	–	–	–	–	–	–	–
N#CC1(CCCI)CCCC1	51.6 µM	> 100	81.8 µM	> 100	94.7 µM	28.7 µM	> 100 µM	57.3 µM	26.3 µM	58.9 µM	–	–	–	–	–	–	–	–	–	–
O=C(O)c1cc2ccccc2c(N=Nc2ccc(S(=O)(=O)Nc3ccccn3)cc2)c1O	> 100 µM	> 100	> 100 µM	> 100	> 100 µM	> 100 µM	> 100 µM	> 100 µM	> 100 µM	> 100 µM	–	–	–	–	–	–	–	–	–	–
Cc1[nH]c(C(=O)Nc2ccc(C(=O)NCCN)cc2OC(C)C)c(Cl)c1Cl	3.11 µM	–	3.76 µM	3.07	3.23 µM	–	–	3.21 µM	3.41 µM	–	1.67	1.99	1.67	1.76	1.76	1.82	–	–	–	–
Cc1csc2nc(-c3cccc([N+](=O)[O-])c3)c(/C=N/N=C(N)N)n12	2.98 µM	–	3.42 µM	3.63	3.12 µM	3.26 µM	–	3.15 µM	3.11 µM	2.26 µM	–	–	–	–	–	–	–	–	–	–
O=C1Nc2cccc(Cl)c2/C1=C\c1cccnc1	16.1 µM	–	25.9 µM	> 100	34.6 µM	21.6 µM	10.2 µM	> 100 µM	20.5 µM	> 100 µM	–	–	–	–	–	–	–	–	–	–
C[n+]1c2ccccc2c(N=[N+]=[N-])c2ccccc21	> 10 µM	> 10	> 10 µM	> 10	> 10 µM	> 10 µM	> 10 µM	> 10 µM	> 10 µM	> 10 µM	–	–	–	–	–	–	–	–	–	–
CCCCCCCCCCCCc1ccc(S(=O)(=O)O)cc1.[Cu+2]	> 100 µM	–	–	> 100	> 100 µM	–	> 100 µM	> 100 µM	> 100 µM	> 100 µM	–	–	–	–	–	–	–	–	–	–
CC[C@@]1(O)CC(OC2CC(N3CCOCC3)C(O)C(C)O2)c2c(O)c3c(c(O)c2[C@H]1O)C(=O)c1cccc(O)c1C3=O (stereo partly drawn)	2.17 µM and 0.821 µM	25	0.959 µM and 1.5 µM	0.0815	0.526 µM and 0.357 µM	0.906 µM and 0.407 µM	0.369 µM and 0.128 µM	1.8 µM and 1.94 µM	2.17 µM and 9.19 µM	0.431 µM and 0.36 µM	0.192	–	–	0.0292	–	0.0465	0.055	0.000481 µM and < 0.0113 µM	–	–
O=C(CSCC(=O)N/N=C\c1ccc(F)cc1F)N/N=C\c1ccc(F)cc1F	–	> 100	> 100 µM	> 100	> 100 µM	> 100 µM	> 100 µM	> 100 µM	> 100 µM	> 100 µM	–	–	–	–	–	–	–	–	–	–
C[C@]12CC[C@H]3[C@@H](CC=C4C[C@@H](O)CC[C@@]43C)[C@@H]1C/C(=C\c1ccncc1)[C@@H]2O	> 100 µM	57.3	45.9 µM	50.5	35.5 µM	57.7 µM	61.9 µM	51.3 µM	34.8 µM	31 µM	–	–	–	–	–	–	–	–	–	–
N#Cc1c(-c2ccc([N+](=O)[O-])cc2)c2c([nH]c1=O)-c1ccccc1CCC2	> 100 µM	> 100	> 100 µM	> 100	> 100 µM	> 100 µM	> 100 µM	> 100 µM	> 100 µM	> 100 µM	–	–	–	–	–	–	–	–	–	–
CC(C)CCN(CCC(C)C)CC(=O)Nc1ccc(S(=O)(=O)c2ccc(NC(=O)CN(CCC(C)C)CCC(C)C)cc2)cc1	5.46 µM	5.19	6.14 µM	4.68	16.5 µM	3.2 µM	7.44 µM	9.98 µM	25.2 µM	5.79 µM	2.07	2.11	1.94	3.86	2.64	3.1	1.53	2.22 µM	1.72	2.28
O=C1OC(c2ccc(O)cc2)(c2ccc(O)cc2)c2ccc(Cl)c3cccc1c23 (tested in a mixture with another compound)	20.8 µM	28.4	31.6 µM	39.8	25.2 µM	–	–	21.1 µM	27.7 µM	–	–	–	–	–	–	–	–	–	–	–
COc1ccccc1C#C/C=C\C#Cc1ccccc1C#N	> 100 µM	29.9	51.8 µM	> 100	47.1 µM	25.7 µM	38.4 µM	> 100 µM	> 100 µM	> 100 µM	–	–	–	–	–	–	–	–	–	–
C[N+]1(C(CO)Cc2c[nH]c3ccccc23)Cc2ccccc2C1 (stereo not drawn)	> 100 µM	> 100	> 100 µM	> 100	> 100 µM	> 100 µM	> 100 µM	> 100 µM	> 100 µM	> 100 µM	–	–	–	–	–	–	–	–	–	–
Cc1ncc(C(=O)Nc2ccc(CN3CCN(C)CC3)c(C(F)(F)F)c2)cc1C#Cc1cnc(N)c2ccc(C#N)cc12	–	> 100	–	–	33.1 µM	> 100 µM	> 100 µM	–	5.01 µM	> 100 µM	–	–	–	0.0545	–	< 0.0124	0.0788	0.4 µM	0.0607	0.0559
